Data on four compounds can be found in paper PMC13031062 (Acta Pharmaceutica Sinica. B, 2025).

One may read the Kd as a measure of binding affinity in units of concentration. Low values mean a tighter complex, high ones a looser complex.

For experiment [1], the target named is T1, acyl-CoA synthetase long-chain family member 3 (ACSL3) (Homo sapiens, UniProt O95573). Nature of the experiment: microscale thermophoresis. It counts as binding. (In MST a laser heats a spot of the sample, and binding alters the fluorescence response.)
T1 sequence (O95573 whole entry): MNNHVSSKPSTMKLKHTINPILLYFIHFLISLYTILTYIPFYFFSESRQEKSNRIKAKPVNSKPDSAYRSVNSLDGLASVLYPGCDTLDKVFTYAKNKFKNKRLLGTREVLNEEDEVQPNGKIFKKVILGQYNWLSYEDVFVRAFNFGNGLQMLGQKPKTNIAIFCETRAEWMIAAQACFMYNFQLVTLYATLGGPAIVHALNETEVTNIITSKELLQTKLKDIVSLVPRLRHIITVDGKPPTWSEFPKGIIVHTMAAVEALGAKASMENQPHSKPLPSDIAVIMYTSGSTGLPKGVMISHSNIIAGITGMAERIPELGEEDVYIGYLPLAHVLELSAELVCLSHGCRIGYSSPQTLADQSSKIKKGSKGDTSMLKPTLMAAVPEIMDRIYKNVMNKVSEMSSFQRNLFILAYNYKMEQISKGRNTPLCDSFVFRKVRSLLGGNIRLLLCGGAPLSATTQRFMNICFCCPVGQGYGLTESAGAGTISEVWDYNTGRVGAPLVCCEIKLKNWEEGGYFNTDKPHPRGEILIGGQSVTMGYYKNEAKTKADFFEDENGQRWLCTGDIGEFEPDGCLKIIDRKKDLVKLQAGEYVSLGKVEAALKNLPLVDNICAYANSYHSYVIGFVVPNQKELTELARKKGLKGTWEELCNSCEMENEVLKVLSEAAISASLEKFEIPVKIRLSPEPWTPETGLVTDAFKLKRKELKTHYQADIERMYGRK
For experiment [2], the target named is T1, acyl-CoA synthetase long-chain family member 3 (ACSL3). Nature of the experiment: microscale thermophoresis. The class given is binding. This is another data set of the same source.
The target is the same in experiment [3]. Nature of the experiment: LC-MS of OA-CoA formed by recombinant ACSL3. The class given is biochemical.
For experiment [4] the target is unchanged. Nature of the experiment: microscale thermophoresis. It counts as binding. This is another data set of the same source.

Read-outs that look alike come from different tables or passages of the source.

Regarding `CC1=C(/C=C/C(C)=C/C=C/C(C)=C/C(=O)O)C(C)(C)CCC1` [ATRA, all-trans retinoic acid], binding in experiment [1] was put at a Kd of 12800 nM.
As to `CNC(=O)/C=C(C)/C=C/C=C(C)/C=C/C1=C(C)CCCC1(C)C` [D3, (2E,4E,6E,8E)-N,3,7-trimethyl-9-(2,6,6-trimethylcyclohex-1-en-1-yl)nona-2,4,6,8-tetraenamide], binding in experiment [2] was put at a Kd of 1280 nM.
For `CCCCCCCC/C=C\CCCCCCCC(=O)O` [OA, oleic acid], the “LC-MS of OA-CoA formed by recombinant ACSL3” value in experiment [3] was “VA analogues promoted acylation reaction with OA as substrate in the presence of ACSL3”.
The compound `CC1=C(/C=C/C(C)=C/C=C/C(C)=C/CO)C(C)(C)CCC1` [VA, vitamin A] displayed a Kd in experiment [4] of 1850 nM.
